Read-outs that look alike come from different tables or passages of the source. Numbered stars: 1 amine (or outer) side, 2 acyl side, 3 side chain; on linkers, the order of the positions; unused ones are H or OH. Square brackets hold non-standard residues; d marks the D form. Side chains are listed from the residue outwards. Peptide text beside a SMILES is read from it. * marks the point of attachment. C18 diacid = O=C(O)CCCCCCCCCCCCCCCCC(=O)*; γGlu = O=C(O)[C@H](CCC(=O)[*:2])N[*:1]; Palmitoyl = CCCCCCCCCCCCCCCC(=O)*; αMeF = C[C@](N)(Cc1ccccc1)C(=O)O; αMeK = C[C@](N)(CCCCN)C(=O)O; Lauroyl = CCCCCCCCCCCC(=O)*; αMeS = C[C@](N)(CO)C(=O)O; AEEA = NCCOCCOCC(=O)O; Aib = CC(C)(N)C(=O)O
Molecular target: T1, human GLP-1 receptor (GLP-1R) (Homo sapiens, UniProt P43220)
T1 construct: expressed in transfected cells; host or cells: HEK293 cells or CHO cells
T1 sequence (P43220 24-463): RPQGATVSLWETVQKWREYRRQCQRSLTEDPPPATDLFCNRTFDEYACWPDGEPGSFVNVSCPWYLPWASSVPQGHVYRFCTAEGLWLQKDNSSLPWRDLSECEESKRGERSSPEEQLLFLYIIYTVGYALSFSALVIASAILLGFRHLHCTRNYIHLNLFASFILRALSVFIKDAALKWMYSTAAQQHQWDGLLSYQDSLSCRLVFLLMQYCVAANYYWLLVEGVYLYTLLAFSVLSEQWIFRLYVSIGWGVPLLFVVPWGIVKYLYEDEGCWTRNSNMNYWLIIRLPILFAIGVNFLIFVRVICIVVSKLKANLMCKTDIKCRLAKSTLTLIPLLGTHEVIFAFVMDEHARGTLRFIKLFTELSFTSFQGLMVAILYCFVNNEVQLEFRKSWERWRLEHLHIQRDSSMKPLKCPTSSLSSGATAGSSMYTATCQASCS
Assay: cAMP assay, human GLP-1R cells
Assay type: cell-based
Description: Sample dilutions are made in duplicate.
A frozen cryo-vial of cells expressing the receptor of interest is thawed rapidly in a water-bath, transferred to pre-warmed assay buffer and spun at 240×g for 5 minutes. Cells are re-suspended in assay buffer at a batch-dependent optimized concentration (e.g. hGCGR cells at 2×10^5 cells/ml, hGLP-1R and hGIPR cells at 1×10^5 cells/ml).
To this, 5 μL cell suspension is added and the plates incubated at room temperature for 30 minutes.
cAMP levels are measured using a commercially available cAMP dynamic 2 HTRF kit (Cisbio, Cat #62AM4PEJ), following the two step protocol as per manufacturer's recommendations. In brief; anti-cAMP cryptate (donor fluorophore) and cAMP-d2 (acceptor fluorophore) are made up separately by diluting each 1/20 in conjugate & lysis buffer provided in the kit. 5 μL anti-cAMP cryptate is added to wells of the assay plate, and 5 μL cAMP-d2 is added to wells except non-specific binding (NSB) wells, to which conjugate and lysis buffer are added. […] EC50 values of the synthetic peptides determined in cAMP assays are then determined.
Data is transformed to % Delta F as described in the manufacturer's guidelines and analyzed by 4-parameter logistic fit to determine EC50 values. […] To compare the balance of activities at the GLP-1R and GCGR between different peptides and across different conditions, these can be correlated, where the EC50's are related to those of comparator peptides.

[1] = Table 11, tris-lipidated peptides, mean of n1 and n2, read-out: Primary assay EC50 Mean pM GLP-1R
[2] = Table 11, tris-lipidated peptides, replicate n1, read-out: Primary assay EC50 GLP-1R n1
[3] = Table 11, tris-lipidated peptides, replicate n2, read-out: Primary assay EC50 GLP-1R n2
[4] = cAMP activity, mean of n1 and n2, read-out: Mean pM GLP-1R
[5] = cAMP activity, second determination (n2), read-out: Primary assay EC50 GLP-1R n2

| EC50 [1] | EC50 [2] | EC50 [3] | EC50 [4] | EC50 [5] | SMILES |
| --- | --- | --- | --- | --- | --- |
| 82 pM | 69.5 pM | 94.4 pM | – | – | CCCCCCCCCCCC(=O)N[C@@H](CCC(=O)NCCOCCOCC(=O)NCCOCCOCC(=O)NCCCC[C@H](NC(=O)[C@H](C)NC(=O)[C@@H](NC(=O)[C@H](Cc1ccccc1)NC(=O)[C@H](CCC(=O)O)NC(=O)[C@](C)(CCCCN)NC(=O)[C@H](C)NC(=O)[C@H](C)NC(=O)[C@H](CCC(=O)O)NC(=O)[C@H](CCCCNC(=O)COCCOCCNC(=O)COCCOCCNC(=O)CC[C@H](NC(=O)CCCCCCCCCCC)C(=O)O)NC(=O)[C@H](CCC(=O)O)NC(=O)[C@H](CC(C)C)NC(=O)[C@H](CCCCNC(=O)COCCOCCNC(=O)COCCOCCNC(=O)CC[C@H](NC(=O)CCCCCCCCCCC)C(=O)O)NC(=O)[C@H](CO)NC(=O)[C@](C)(CO)NC(=O)[C@@H](NC(=O)[C@H](CC(=O)O)NC(=O)[C@H](CO)NC(=O)[C@@H](NC(=O)[C@](C)(Cc1ccccc1)NC(=O)[C@H](CO)NC(=O)CNC(=O)[C@H](CCC(=O)O)NC(=O)C(C)(C)NC(=O)[C@@H](N)Cc1c[nH]cn1)[C@@H](C)O)C(C)C)[C@@H](C)CC)C(=O)N[C@H](C(=O)N[C@H](C(=O)N[C@@H](CCC(=O)O)C(=O)NCC(=O)NCC(N)=O)C(C)C)C(C)C)C(=O)O [compound 463] (H-H[Aib]EGS[αMeF]TSDV[αMeS]SK([AEEA-AEEA-γGlu-Lauroyl])LEK([AEEA-AEEA-γGlu-Lauroyl])EAA[αMeK]EFIAK([AEEA-AEEA-γGlu-Lauroyl])VVEGG-NH2; N-terminus assumed) |
| – | – | – | 34 pM | 34.6 pM | CC[C@H](C)[C@H](NC(=O)[C@](C)(Cc1ccccc1)NC(=O)[C@H](CCC(=O)O)NC(=O)[C@H](CCCCNC(=O)COCCOCCNC(=O)COCCOCCNC(=O)CC[C@H](NC(=O)CCCCCCCCCCCCCCC(=O)O)C(=O)O)NC(=O)[C@H](C)NC(=O)[C@H](C)NC(=O)[C@H](CCC(=O)O)NC(=O)CNC(=O)[C@H](CCC(=O)O)NC(=O)[C@H](CC(C)C)NC(=O)[C@](C)(Cc1ccccc1)NC(=O)[C@H](CO)NC(=O)[C@](C)(CO)NC(=O)[C@@H](NC(=O)[C@H](CC(=O)O)NC(=O)[C@H](CO)NC(=O)[C@@H](NC(=O)[C@](C)(Cc1ccccc1)NC(=O)[C@H](CO)NC(=O)CNC(=O)[C@H](CCC(=O)O)NC(=O)C(C)(C)NC(=O)[C@@H](N)Cc1c[nH]cn1)[C@@H](C)O)C(C)C)C(=O)N[C@@H](C)C(=O)N[C@@](C)(Cc1ccccc1)C(=O)N[C@H](C(=O)N[C@H](C(=O)N[C@@](C)(CCCCN)C(=O)NCC(=O)NCC(N)=O)C(C)C)C(C)C [compound 109] |
| – | – | – | 6 pM | – | CC[C@H](C)[C@H](NC(=O)[C@](C)(Cc1ccccc1)NC(=O)[C@H](CCC(=O)O)NC(=O)[C@](C)(CCCCN)NC(=O)[C@H](C)NC(=O)[C@H](C)NC(=O)[C@H](CCCCNC(=O)COCCOCCNC(=O)COCCOCCNC(=O)CC[C@H](NC(=O)CCCCCCCCCCCCCCCCC(=O)O)C(=O)O)NC(=O)CNC(=O)[C@H](CCC(=O)O)NC(=O)[C@H](CC(C)C)NC(=O)[C@](C)(Cc1ccccc1)NC(=O)[C@H](CO)NC(=O)[C@](C)(CO)NC(=O)[C@@H](NC(=O)[C@H](CC(=O)O)NC(=O)[C@H](CO)NC(=O)[C@@H](NC(=O)[C@](C)(Cc1ccccc1)NC(=O)[C@H](CO)NC(=O)CNC(=O)[C@H](CCC(=O)O)NC(=O)C(C)(C)NC(=O)[C@@H](N)Cc1c[nH]cn1)[C@@H](C)O)C(C)C)C(=O)N[C@@H](C)C(=O)N[C@@](C)(Cc1ccccc1)C(=O)N[C@H](C(=O)N[C@H](C(=O)N[C@@](C)(CCCCN)C(=O)NCC(=O)NCC(N)=O)C(C)C)C(C)C [compound 112] (H-H[Aib]EGS[αMeF]TSDV[αMeS]S[αMeF]LEGK([AEEA-AEEA-γGlu-C18 diacid])AA[αMeK]E[αMeF]IA[αMeF]VV[αMeK]GG-NH2; N-terminus assumed) |
| 170 pM | 116 pM | 224 pM | – | – | CCCCCCCCCCCC(=O)N[C@@H](CCC(=O)NCCOCCOCC(=O)NCCOCCOCC(=O)NCCCC[C@H](NC(=O)CNC(=O)[C@H](CCC(=O)O)NC(=O)[C@H](CC(C)C)NC(=O)[C@H](Cc1ccc(O)cc1)NC(=O)[C@H](CO)NC(=O)[C@H](CO)NC(=O)[C@H](CCCCNC(=O)COCCOCCNC(=O)COCCOCCNC(=O)CC[C@H](NC(=O)CCCCCCCCCCC)C(=O)O)NC(=O)[C@H](CC(=O)O)NC(=O)[C@H](CO)NC(=O)[C@@H](NC(=O)[C@](C)(Cc1ccccc1)NC(=O)[C@H](CO)NC(=O)CNC(=O)[C@H](CCC(=O)O)NC(=O)C(C)(C)NC(=O)[C@@H](N)Cc1c[nH]cn1)[C@@H](C)O)C(=O)N[C@@H](C)C(=O)N[C@@H](C)C(=O)N[C@@](C)(CCCCN)C(=O)N[C@@H](CCC(=O)O)C(=O)N[C@@H](Cc1ccccc1)C(=O)N[C@H](C(=O)N[C@@H](C)C(=O)N[C@@H](CCCCNC(=O)COCCOCCNC(=O)COCCOCCNC(=O)CC[C@H](NC(=O)CCCCCCCCCCC)C(=O)O)C(=O)N[C@H](C(=O)N[C@H](C(=O)N[C@@H](CCC(=O)O)C(=O)NCC(=O)NCC(N)=O)C(C)C)C(C)C)[C@@H](C)CC)C(=O)O [compound 456] (H-H[Aib]EGS[αMeF]TSDK([AEEA-AEEA-γGlu-Lauroyl])SSYLEGK([AEEA-AEEA-γGlu-Lauroyl])AA[αMeK]EFIAK([AEEA-AEEA-γGlu-Lauroyl])VVEGG-NH2; N-terminus assumed) |
| – | – | – | 227 pM | – | CC[C@H](C)[C@H](NC(=O)[C@](C)(Cc1ccccc1)NC(=O)[C@H](CCC(=O)O)NC(=O)[C@H](CCCCNC(=O)CC[C@H](NC(=O)CC[C@H](NC(=O)CC[C@H](NC(=O)CCCCCCCCCCCCCCCCC(=O)O)C(=O)O)C(=O)O)C(=O)O)NC(=O)[C@H](C)NC(=O)[C@H](C)NC(=O)[C@H](CCC(=O)O)NC(=O)CNC(=O)[C@H](CCC(=O)O)NC(=O)[C@H](CC(C)C)NC(=O)[C@](C)(Cc1ccccc1)NC(=O)[C@H](CO)NC(=O)[C@](C)(CO)NC(=O)[C@@H](NC(=O)[C@H](CC(=O)O)NC(=O)[C@H](CO)NC(=O)[C@@H](NC(=O)[C@](C)(Cc1ccccc1)NC(=O)[C@H](CO)NC(=O)CNC(=O)[C@H](CCC(=O)O)NC(=O)C(C)(C)NC(=O)[C@@H](N)Cc1c[nH]cn1)[C@@H](C)O)C(C)C)C(=O)N[C@@H](C)C(=O)N[C@@](C)(Cc1ccccc1)C(=O)N[C@H](C(=O)N[C@H](C(=O)N[C@@](C)(CCCCN)C(=O)NCC(=O)NCC(N)=O)C(C)C)C(C)C [compound 157] |
| – | – | – | 1860 pM | – | CCCCCCCCCCCCCCCC(=O)N[C@@H](CCC(=O)NCCCC[C@H](NC(=O)[C@](C)(Cc1ccccc1)NC(=O)[C@H](CCC(=O)O)NC(=O)[C@](C)(CCCCN)NC(=O)[C@H](C)NC(=O)[C@H](C)NC(=O)[C@H](CCC(=O)O)NC(=O)CNC(=O)[C@H](CCC(=O)O)NC(=O)[C@H](CC(C)C)NC(=O)[C@](C)(Cc1ccccc1)NC(=O)[C@H](CO)NC(=O)[C@](C)(CO)NC(=O)[C@@H](NC(=O)[C@H](CC(=O)O)NC(=O)[C@H](CO)NC(=O)[C@@H](NC(=O)[C@](C)(Cc1ccccc1)NC(=O)[C@H](CO)NC(=O)CNC(=O)[C@H](CCC(=O)O)NC(=O)C(C)(C)NC(=O)[C@@H](N)Cc1c[nH]cn1)[C@@H](C)O)C(C)C)C(=O)N[C@@H](C)C(=O)N[C@@](C)(Cc1ccccc1)C(=O)N[C@H](C(=O)N[C@H](C(=O)N[C@@](C)(CCCCN)C(=O)NCC(=O)NCC(N)=O)C(C)C)C(C)C)C(=O)O [compound 77] (H-H[Aib]EGS[αMeF]TSDV[αMeS]S[αMeF]LEGEAA[αMeK]E[αMeF]K([γGlu-Palmitoyl])A[αMeF]VV[αMeK]GG-NH2; N-terminus assumed) |
| – | – | – | 9 pM | 9.12 pM | CC[C@H](C)[C@H](NC(=O)[C@](C)(Cc1ccccc1)NC(=O)[C@H](CCC(=O)O)NC(=O)[C@](C)(CCCCN)NC(=O)[C@H](C)NC(=O)[C@H](C)NC(=O)[C@H](CCC(=O)O)NC(=O)CNC(=O)[C@H](CCC(=O)O)NC(=O)[C@H](CC(C)C)NC(=O)[C@H](CCCCNC(=O)COCCOCCNC(=O)COCCOCCNC(=O)CC[C@H](NC(=O)CCCCCCCCCCCCCCCCC(=O)O)C(=O)O)NC(=O)[C@H](CO)NC(=O)[C@](C)(CO)NC(=O)[C@@H](NC(=O)[C@H](CC(=O)O)NC(=O)[C@H](CO)NC(=O)[C@@H](NC(=O)[C@](C)(Cc1ccccc1)NC(=O)[C@H](CO)NC(=O)CNC(=O)[C@H](CCC(=O)O)NC(=O)C(C)(C)NC(=O)[C@@H](N)Cc1c[nH]cn1)[C@@H](C)O)C(C)C)C(=O)N[C@@H](C)C(=O)N[C@@](C)(Cc1ccccc1)C(=O)N[C@H](C(=O)N[C@H](C(=O)N[C@@](C)(CCCCN)C(=O)NCC(=O)NCC(N)=O)C(C)C)C(C)C [compound 116] |
